{
  "source": "patent US20020197244A1",
  "about": "“Compositions and methods for regulating phagocytosis and ICAM-1 expression” (priority 1998, published 2002)",
  "key": {"[1]": {"system": "human keratinocyte cell line HaCaT", "assay": "Fluorescent microsphere ingestion by keratinocyte cell line HaCaT", "assay_type": "cell-based", "settings": "FIG. 2", "description": "In order to study the role of the PAR-2 pathway in phagocytosis, several in vitro model systems were used. One system used contained primary human keratinocytes or a human keratinocyte cell line. In this and a number of following examples, cells were treated with test compounds for different amounts of time (from one hour to three days), and samples were then incubated with fluorescent microspheres for two hours. The beads ingested by the cells were photographed using fluorescence microscopy.\n(§1) In this example, human primary keratinocytes or the human keratinocyte cell line HaCaT were used as in vitro model systems to study the effect of PAR-2 regulators on keratinocyte phagocytosis. The human primary keratinocytes used are commercially available from Clonetics (San Diego, Calif.). Cells were plated on chamber slides, at 2 chambers/slide and 60,000 cells/chamber. Cells were treated once daily, for two or three days, with Compound I (1μM), SLIGRL (10μM), or vehicle (Phosphate-buffered saline, (“PBS”) from Gibco-BRL (Gaithersburg, Md.). After two or three days of exposure to the test compounds, cells were exposed to Nile-red or FITC fluorescent microspheres, 1 μm in diameter, 50 microspheres/cell, for two hours at 37° C. Microspheres were from Molecular Probes (Eugene, Oreg.), and were processed according to manufacturer's instructions. Following that treatment, cells were incubated with 15% Fetal Bovine Serum (“FBS”, from Gibco-BRL), for 15 minutes at 37° C. and rinsed with PBS. At that time, chambers were separated from the slides, and the slides were covered with glycerol and coverslips. Fluorescent microscopy was performed using a Zeiss Axiovert 35 or a Nikon Optiphot-2 microscope.\nThe same results were also obtained when the human keratinocyte cell line HaCaT was used instead of the primary keratinocytes (see FIG. 2). SLIGRL, STI and Compound I were tested for their effect on keratinocyte phagocytosis. In these experiments, the extracellular accumulation of microspheres could be washed off. […]"}, "[2]": {"system": "macrophage cell line IC-21", "assay": "Fluorescent microsphere ingestion by macrophages", "assay_type": "cell-based", "settings": "IC-21 macrophages", "description": "as §1\nThe experiment described in Example 1 was repeated using the macrophage cell line IC-21 (obtained from the ATCC), which shares phagocytic characteristics with peritoneal macrophages. As shown for keratinocytes and fibroblasts, Compound I and STI reduced, and SLIGRL increased, the number of microspheres ingested by these macrophages which are “professional phagocytic” cells."}, "[3]": {"system": "macrophage cell line IC-21", "assay": "Vybrant Phagocytosis Assay Kit, fluorescein-labeled E. coli K-12 particles", "assay_type": "cell-based", "settings": "for % effect (ingestion): treated overnight, 100 nM Compound I, 5 μM SLIGRL, 0.1 mg/ml STI, untreated control = 100, one experiment of three; for phagocytosis, dose-response: STI 0, 0.01, 0.1, 1 mg/ml, Compound I 0.01, 0.1, 1 nM, FIG. 4A, 4B", "description": "To better quantify the level of phagocytosis, the “Vybrant™ Phagocytosis Assay Kit” of Molecular Probes (Eugene, Oreg.) was used, following manufacturer's instructions, with modification of cell culture conditions for the IC-21 cell line. This kit uses Fluorescein-labeled E. coli K-12 particles, and is designed for quantifying the effects of drugs or other environmental factors on phagocytic functions. Macrophages were treated overnight with 100 nM of Compound I, 5 μM of SLIGRL, or 0.1 mg/ml of STI, all dissolved in PBS. The ability of the treated macrophages to ingest the fluorescent E. coli, as measured by this kit, is documented in Table 1. This experiment was repeated three times.\nIn order to verify the quantitative nature of the macrophage-phagocytosis assay, a dose-response experiment was performed. Macrophages were treated with 0, 0.01, 0.1 and 1 mg/ml of STI, and the experiment was performed as described in Example 3. […] Each experiment was repeated three times."}, "Human keratinocytes": {"system": "Human keratinocytes", "assay": "Keratinocyte microsphere phagocytosis dose-response, image analysis", "assay_type": "cell-based", "settings": "two days; for phagocytosis with increasing concentrations: SLIGRL 0, 5 and 10M, Compound I 1 pM to 1 μM, STI 0.01 to 1 mg/ml; for % Ingestion: untreated = 100 +/− 12", "description": "as §1\nDose-response Relationship Between PAR-2 Signaling and Keratinocyte Phagocytosis Human keratinocytes were treated with increasing concentrations of SLIGRL, the PAR-2 peptide activator and agonist, at 0, 5 and 10M for two days in the same manner as set forth in Example 1. […] Human keratinocytes were also treated with increasing concentrations of Compound I and STI for two days.\nImage analysis of the fluorescent beads inside the keratinocytes was used as an alternative way to quantify the phagocytic effect in this system. Empire Imagins Database Version 1.1 was used on a Gateway 2000 P5-100 computer (Media Cybernetics, Silver Springs, Md.) for capturing images. Image Pro Plus version 1.3 was used for measurements, and Microsoft Excel version 5.0 was used for data processing. Data obtained from this keratinocyte-microsphere system were in full agreement with data from the macrophage/E. coli system."}, "Keratinocytes [4]": {"system": "Keratinocytes", "assay": "Melanin/melanosome uptake by keratinocytes, Fontana-Mason staining", "assay_type": "cell-based", "settings": "treated two days, melanin two hours; FIG. 5A; same results with isolated melanosomes (FIG. 5B)", "description": "This example tests the ability of keratinocytes to acquire melanin or melanosomes in vitro, and thus function as a simplified system for melanosome uptake in the skin. Keratinocytes were plated in glass chamber-slides as described earlier, and were treated for two days with SLIGRL, Compound I or STI. At that time, melanin powder (from Sigma, St. Louis, Mo.) was mixed in sterile PBS at 10 μg/ml, and was added to the culture media (1:10 dilution) for two hours. Cells were then washed with PBS and stained with Fontana-Mason (“F&M”) staining. F&M stains silver nitrate-reducing molecules, thereby permitting the identification of melanins inside the keratinocytes. […] This system, therefore, can mimic melanosome transfer and melanin distribution in vivo, as skin keratinocytes use melanin as an UV-protective cap over their nuclei. […] The same results were also observed using melanosomes isolated as described in S. Orlow, et al., J.I.D. 100:55-64 (1993) (FIG. 5B)."}, "ICAM-1": {"system": "ICAM-1", "assay": "ICAM-1 immunofluorescent staining of keratinocytes", "assay_type": "cell-based, human", "settings": "vs untreated keratinocytes; FIG. 6A", "description": "Intercellular adhesion molecule-1 (ICAM-1) is an inducible cell-surface glycoprotein that is implicated in cell-cell adhesion, cell membrane raffling and phagocytosis. Therefore, the effect of PAR-2 modulation on ICAM-1 was tested. Keratinocytes were grown in chamber slides and treated with SLIGRL, Compound I and STI as described, followed by immunofluorescent staining for ICAM-1 using standard procedures. Normal donkey serum, (used at 1:5 dilution), was obtained from Jackson Immunoresearch Laboratory (Westgrove, Pa.). A polyclonal goat anti-human ICAM-1 antibody, (used at 1:200 dilution), was obtained from R&D Systems (Minneapolis, Minn.), and FITC-conjugated donkey anti-goat antibody was obtained from Jackson Immunoresearch Laboratory. […] In untreated keratinocytes, ICAM-1 was localized mainly to the plasma membrane, with some staining at the nuclear membrane."}, "Keratinocytes [5]": {"system": "Keratinocytes", "assay": "F-actin staining of keratinocytes", "assay_type": "cell-based", "settings": "Compound I 10 nM, STI 0.1 mg/ml, SLIGRL 5 μM; FIG. 9", "description": "Therefore, the organization of F-actin filaments following PAR-2 modulation was tested. Keratinocytes were treated with Compound I (10 nM), STI (0.1 mg/ml), or with SLIGRL (5 μM) as described in Example 1, and stained for F-actin using standard techniques."}},
  "data": [
    {"molecule": "CN[C@H](Cc1ccccc1)C(=O)N1CCCC1C(=O)N[C@@H](CCCNC(=N)N)C(=O)c1nc2ccccc2s1", "note": "(stereo partly drawn) [Compound I, (S)-N-Methyl-D-phenylalanyl-N-[4-[(aminoiminomethyl)amino]-1-(2-benzothiazolylcarbonyl)butyl]-L-prolinamide]", "values": [
      {"measurement": "microsphere ingestion", "setting": "[1]", "value": "reduce microsphere ingestion"},
      {"measurement": "number of microspheres ingested", "setting": "[2]", "value": "reduced"},
      {"measurement": "% effect (ingestion)", "setting": "[3]", "value": "89.9 +/− 13.6%"},
      {"measurement": "phagocytosis with increasing concentrations", "setting": "Human keratinocytes", "value": "dose-dependent decrease in phagocytosis"},
      {"measurement": "uptake (internalization) of melanin by keratinocytes", "setting": "Keratinocytes [4]", "value": "dramatically reduce the uptake of melanin"},
      {"measurement": "intracellular localization of ICAM-1", "setting": "ICAM-1", "value": "less staining was observed at the cytoplasmic membrane, and more at the nuclear membrane"},
      {"measurement": "actin filaments organization", "setting": "Keratinocytes [5]", "value": "reduced the ordered organization of the cell cortex"}
    ]},
    {"molecule": "SLIGRL [reference compound]", "values": [
      {"measurement": "microsphere ingestion", "setting": "[1]", "value": "increased microsphere ingestion"},
      {"measurement": "number of microspheres ingested", "setting": "[2]", "value": "increased"},
      {"measurement": "phagocytosis, dose-response", "setting": "[3]", "value": "increase in phagocytosis"},
      {"measurement": "% effect (ingestion)", "setting": "[3]", "value": "331.6 +/− 5.9%"},
      {"measurement": "phagocytosis with increasing concentrations", "setting": "Human keratinocytes", "value": "increased phagocytosis"},
      {"measurement": "uptake (internalization) of melanin by keratinocytes", "setting": "Keratinocytes [4]", "value": "dramatically increases the internalization of melanin"},
      {"measurement": "intracellular localization of ICAM-1", "setting": "ICAM-1", "value": "increased and more diffused cytoplasmic membrane staining, and reduced nuclear membrane staining"},
      {"measurement": "actin filaments organization", "setting": "Keratinocytes [5]", "value": "induced actin polymerization around the cell cortex"}
    ]},
    {"molecule": "STI: Soybean trypsin inhibitor, a serine protease inhibitor capable of affecting the PAR-2 pathway (protein, UniProt P01070 25-205, looked up) Trypsin inhibitor A: DFVLDNEGNPLENGGTYYILSDITAFGGIRAAPTGNERCPLTVVQSRNELDKGIGTIISSPYRIRFIAEGHPLSLKFDSFAVIMLCVGIPTEWSVVEDLPEGPAVKIGENKDAMDGWFRLERVSDDEFNNYKLVFCPQQAEDDKCGDIGISIDHDDGTRRLVVSKNKPLVVQFQKLDKESL", "values": [
      {"measurement": "microsphere ingestion", "setting": "[1]", "value": "reduce microsphere ingestion"},
      {"measurement": "number of microspheres ingested", "setting": "[2]", "value": "reduced"},
      {"measurement": "phagocytosis, dose-response", "setting": "[3]", "value": "dose-response of decreased phagocytosis"},
      {"measurement": "% effect (ingestion)", "setting": "[3]", "value": "56.06 +/− 12.4%"},
      {"measurement": "% Ingestion", "setting": "Human keratinocytes; STI 0.01%", "value": "76 +/− 15%"},
      {"measurement": "% Ingestion", "setting": "Human keratinocytes; STI 0.1%", "value": "55 +/− 14%"},
      {"measurement": "% Ingestion", "setting": "Human keratinocytes; STI 1%", "value": "41.6 +/− 11%"},
      {"measurement": "phagocytosis with increasing concentrations", "setting": "Human keratinocytes", "value": "dose-dependent decrease in phagocytosis"},
      {"measurement": "uptake (internalization) of melanin by keratinocytes", "setting": "Keratinocytes [4]", "value": "dramatically reduce the uptake of melanin"},
      {"measurement": "intracellular localization of ICAM-1", "setting": "ICAM-1", "value": "less staining was observed at the cytoplasmic membrane, and more at the nuclear membrane"},
      {"measurement": "actin filaments organization", "setting": "Keratinocytes [5]", "value": "reduced the ordered organization of the cell cortex"}
    ]}
  ]
}
